In the supplement of paper PMC11451515:

Tested on: P12-Ichikawa
Test: cell viability relative to DMSO control; higher = less cytotoxic
Settings: 48 h
Outline: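 Viability was expressed as a per-plate percentage of DMSO wells, with cell-free wells as background. Leukemia cells (NOMO1 or SEM at 500 cells/well, P12-Ichikawa at 1000 cells/well) were adapted for at least four passages in each medium and seeded in 1536-well plates (5 μl). Library compounds in DMSO were pin-dosed over an 11-point threefold series from 47 μM to 0.79 nM, and CellTiter-Glo One luminescence was read after 48 h at 37°C.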

[1] = HPLM + 10% dialyzed FBS, 0.000781 µM
[2] = HPLM + 10% dialyzed FBS, 0.00234 µM
[3] = HPLM + 10% dialyzed FBS, 0.00702 µM
[4] = HPLM + 10% dialyzed FBS, 0.0211 µM
[5] = HPLM + 10% dialyzed FBS, 0.0632 µM
[6] = HPLM + 10% dialyzed FBS, 0.19 µM
[7] = HPLM + 10% dialyzed FBS, 0.569 µM
[8] = HPLM + 10% dialyzed FBS, 1.71 µM
[9] = HPLM + 10% dialyzed FBS, 5.12 µM
[10] = HPLM + 10% dialyzed FBS, 15.4 µM
[11] = HPLM + 10% dialyzed FBS, 46.1 µM
[12] = RPMI 5 mM glucose + 10% FBS, 0.000781 µM
[13] = RPMI 5 mM glucose + 10% FBS, 0.00234 µM
[14] = RPMI 5 mM glucose + 10% FBS, 0.00702 µM
[15] = RPMI 5 mM glucose + 10% FBS, 0.0211 µM
[16] = RPMI 5 mM glucose + 10% FBS, 0.0632 µM
[17] = RPMI 5 mM glucose + 10% FBS, 0.19 µM
[18] = RPMI 5 mM glucose + 10% FBS, 0.569 µM
[19] = RPMI 5 mM glucose + 10% FBS, 1.71 µM
[20] = RPMI 5 mM glucose + 10% FBS, 5.12 µM
[21] = RPMI 5 mM glucose + 10% FBS, 15.4 µM
[22] = RPMI 5 mM glucose + 10% FBS, 46.1 µM
[23] = RPMI 5 mM glucose + 10% dialyzed FBS, 0.000781 µM
[24] = RPMI 5 mM glucose + 10% dialyzed FBS, 0.00234 µM
[25] = RPMI 5 mM glucose + 10% dialyzed FBS, 0.00702 µM
[26] = RPMI 5 mM glucose + 10% dialyzed FBS, 0.0211 µM
[27] = RPMI 5 mM glucose + 10% dialyzed FBS, 0.0632 µM
[28] = RPMI 5 mM glucose + 10% dialyzed FBS, 0.19 µM
[29] = RPMI 5 mM glucose + 10% dialyzed FBS, 0.569 µM
[30] = RPMI 5 mM glucose + 10% dialyzed FBS, 1.71 µM
[31] = RPMI 5 mM glucose + 10% dialyzed FBS, 5.12 µM
[32] = RPMI 5 mM glucose + 10% dialyzed FBS, 15.4 µM
[33] = RPMI 5 mM glucose + 10% dialyzed FBS, 46.1 µM

Row | SMILES | cell viability [1] | cell viability [2] | cell viability [3] | cell viability [4] | cell viability [5] | cell viability [6] | cell viability [7] | cell viability [8] | cell viability [9] | cell viability [10] | cell viability [11] | cell viability [12] | cell viability [13] | cell viability [14] | cell viability [15] | cell viability [16] | cell viability [17] | cell viability [18] | cell viability [19] | cell viability [20] | cell viability [21] | cell viability [22] | cell viability [23] | cell viability [24] | cell viability [25] | cell viability [26] | cell viability [27] | cell viability [28] | cell viability [29] | cell viability [30] | cell viability [31] | cell viability [32] | cell viability [33]
1 | CN(C(=O)c1ccc(F)cc1C(F)(F)F)C1CCN(c2nnc(-c3ccnn3C)c3ccccc23)CC1 | 74.9% | 88.9% | 77.9% | 85.9% | 89.2% | 81.8% | 82.1% | 84.5% | 79.4% | 85.4% | 47.3% | 75.1% | 83.3% | 81.5% | 76.2% | 78.5% | 81.5% | 79.4% | 71.7% | 75.3% | 82.8% | 39.6% | 73.7% | 70.6% | 72.8% | 78.5% | 79.9% | 84.8% | 75.9% | 75.1% | 74.3% | 77.7% | 38.2%
2 | O=C1[O][Pt]2([NH]C3CCCCC3[NH]2)[O]C1=O (stereo unspecified) | 19.4% | 112% | 115% | 111% | 118% | 113% | 118% | 114% | 62.4% | 2.95% | 3.39% | 106% | 109% | 106% | 118% | 115% | 123% | 128% | 117% | 70% | 3.56% | 2.67% | 111% | 115% | 121% | 119% | 119% | 113% | 114% | 113% | 79% | 7.33% | 2.85%
3 | CC(Oc1ccc(O)cc1)(P(=O)(O)O)P(=O)(O)O | 102% | 101% | 94.9% | 100% | 101% | 99.2% | 90.3% | 94.9% | 85.3% | 67.8% | 46.7% | 92.5% | 97.8% | 95% | 93.7% | 100% | 98.2% | 82.2% | 87.2% | 81.5% | 42.8% | 33.6% | 97.1% | 97.5% | 88.6% | 98.4% | 107% | 101% | 90.7% | 93.1% | 87.6% | 47.2% | 34.6%
4 | CCOc1ccccc1OCCNC(C)Cc1ccc(OC)c([S+](N)(=O)[O-])c1 (stereo unspecified) | 88.4% | 104% | 113% | 109% | 103% | 111% | 114% | 105% | 104% | 108% | 107% | 104% | 111% | 111% | 110% | 114% | 106% | 114% | 114% | 117% | 117% | 114% | 82.8% | 103% | 101% | 104% | 103% | 95.8% | 103% | 112% | 110% | 109% | 102%
5 | C[C@H]1[C@@H](CC(C[C@H]2O[C@@H]3O[C@]4(C)CC[C@H]5[C@H](C)CC[C@@H]([C@H]2C)[C@@]35OO4)C[S+](=O)([O-])c2ccc(COC(=O)N(C)C)cc2)O[C@@H]2O[C@]3(C)CC[C@H]4[C@H](C)CC[C@@H]1[C@@]24OO3 | 114% | 111% | 103% | 117% | 110% | 102% | 85.5% | 55.5% | 49.7% | 39% | 13.8% | 114% | 122% | 113% | 122% | 113% | 116% | 81.7% | 52% | 53.2% | 33.5% | 21.8% | 118% | 110% | 107% | 110% | 103% | 106% | 50.7% | 41.7% | 36.9% | 39.7% | 35%
6 | CN(C)c1ccc(C(=O)NCCCCCCC(=O)NO)cc1 | 107% | 102% | 114% | 104% | 110% | 111% | 102% | 44% | 1.14% | 0.537% | 1.62% | 101% | 104% | 109% | 110% | 116% | 108% | 99.5% | 46.9% | 1.46% | 0.517% | 1.9% | 94.9% | 105% | 113% | 116% | 122% | 121% | 98.6% | 25.4% | 1.41% | 0.539% | 1.68%
7 | COc1ccc2cc(-c3[nH]c(-c4ccc([S+](C)[O-])cc4)nc3-c3ccncc3)ccc2c1 (stereo unspecified) | 113% | 114% | 116% | 105% | 117% | 119% | 124% | 120% | 123% | 112% | 99.3% | 105% | 112% | 118% | 120% | 130% | 127% | 128% | 130% | 142% | 120% | 80.7% | 104% | 113% | 105% | 118% | 119% | 117% | 124% | 128% | 120% | 122% | 57.6%
